Literature values, collected in patent US20120316134A1, “ANAESTHETIC COMPOSITION” (JUROX PTY. LTD., priority 2000, published 2012).

Conditions: in vivo

CC(=O)OCC(=O)[C@H]1CC[C@H]2[C@@H]3CC[C@H]4C[C@H](O)CC[C@]4(C)[C@H]3C(=O)C[C@]12C [alfadolone acetate, 21-acetoxy-3 α-hydroxy-5α-pregnane-11,20-dione]
Anaesthetic potency relative to alfaxalone: half as potent
